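Five compound concentrations were applied to cells in 96-well plates for 48 hours; endpoints were derived by simple linear interpolation of the resulting dose-response curve. GI50 = concentration required for 50% inhibition of growth.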 Activity calls are given as the source filed them. Cut-off read from the data, not from the text of the source: active = GI50 up to about 1.1 µM and inactive = higher.
Legend:
Assay in all cases: DTP human tumour cell line panel, 48 h
MDA-MB-435 = tested on: MDA-MB-435
NCI-H460 = tested on: NCI-H460
ACHN = tested on: ACHN
786-0 = tested on: 786-0
Malme-3M = tested on: Malme-3M
PC-3 = tested on: PC-3
SF-539 = tested on: SF-539
NCI-H226 = tested on: NCI-H226
OVCAR-3 = tested on: OVCAR-3
UACC-62 = tested on: UACC-62
DU-145 = tested on: DU-145
M14 = tested on: M14
HCT-116 = tested on: HCT-116
SF-295 = tested on: SF-295
A498 = tested on: A498
SK-OV-3 = tested on: SK-OV-3
NCI-H23 = tested on: NCI-H23
OVCAR-8 = tested on: OVCAR-8
HOP-92 = tested on: HOP-92
SN12C = tested on: SN12C
IGROV-1 = tested on: IGROV-1
COLO 205 = tested on: COLO 205
UACC-257 = tested on: UACC-257
MCF7 = tested on: MCF7
SNB-19 = tested on: SNB-19
U-251 = tested on: U-251
MDA-N = tested on: MDA-N
HT-29 = tested on: HT-29
NCI/ADR-RES = tested on: NCI/ADR-RES
HCT-15 = tested on: HCT-15
SK-MEL-28 = tested on: SK-MEL-28
OVCAR-4 = tested on: OVCAR-4
CAKI-1 = tested on: CAKI-1
HL-60 = tested on: HL-60
SW-620 = tested on: SW-620
EKVX = tested on: EKVX
NCI-H522 = tested on: NCI-H522
BT-549 = tested on: BT-549
TK-10 = tested on: TK-10
HOP-62 = tested on: HOP-62
HCC 2998 = tested on: HCC 2998
KM12 = tested on: KM12
RXF 393 = tested on: RXF 393
OVCAR-5 = tested on: OVCAR-5
SF-268 = tested on: SF-268
MOLT-4 = tested on: MOLT-4
RPMI-8226 = tested on: RPMI-8226
A549 = tested on: A549
SK-MEL-2 = tested on: SK-MEL-2
SK-MEL-5 = tested on: SK-MEL-5
K562 = tested on: K562
LOX IMVI = tested on: LOX IMVI
Hs-578T = tested on: Hs-578T
MDA-MB-231 = tested on: MDA-MB-231
UO-31 = tested on: UO-31
CCRF-CEM = tested on: CCRF-CEM
SR = tested on: SR
SNB-75 = tested on: SNB-75
T47D = tested on: T47D

Measured: GI50

NC(=O)N/N=C\c1ccccc1OCc1cccc(COc2ccccc2/C=N\NC(N)=O)n1
inactive: MDA-MB-435 > 100 µM | NCI-H460 > 100 µM | ACHN 26.2 µM | 786-0 20.5 µM | Malme-3M 72.9 µM | PC-3 86.9 µM | SF-539 19.3 µM | NCI-H226 73.6 µM | OVCAR-3 > 100 µM | UACC-62 19.1 µM | DU-145 18.8 µM | M14 49.2 µM | HCT-116 33.9 µM | SF-295 17.1 µM | A498 98.6 µM | SK-OV-3 19 µM | NCI-H23 30.1 µM | OVCAR-8 63.1 µM | HOP-92 27.2 µM | SN12C > 100 µM | IGROV-1 37.4 µM | COLO 205 > 100 µM | UACC-257 > 100 µM | MCF7 > 100 µM | SNB-19 30.8 µM | U-251 5.56 µM | MDA-N > 100 µM | HT-29 > 100 µM | NCI/ADR-RES 57.4 µM | SK-MEL-28 > 100 µM | OVCAR-4 > 100 µM | CAKI-1 > 100 µM | HL-60 > 100 µM | SW-620 > 100 µM | EKVX 18 µM | NCI-H522 64.4 µM | BT-549 26.9 µM | TK-10 30.7 µM | HOP-62 12.4 µM | HCC 2998 21.3 µM | KM12 > 100 µM | RXF 393 12.9 µM | OVCAR-5 41.2 µM | SF-268 21 µM | MOLT-4 > 100 µM | RPMI-8226 > 100 µM | A549 > 100 µM | SK-MEL-2 28.8 µM | SK-MEL-5 > 100 µM | K562 > 100 µM | LOX IMVI 46.1 µM | Hs-578T 13.2 µM | MDA-MB-231 14.6 µM | UO-31 29.9 µM | CCRF-CEM > 100 µM
64.1 µM: HCT-15

O=C1/C(=C/c2ccc3c(c2)CCC3)Cc2cc3c(cc21)CCC3
> 100 µM: HCT-15
inactive: MDA-MB-435 > 100 µM | NCI-H460 > 100 µM | ACHN > 100 µM | Malme-3M > 100 µM | PC-3 > 100 µM | SF-539 > 100 µM | NCI-H226 > 100 µM | OVCAR-3 > 100 µM | UACC-62 > 100 µM | DU-145 > 100 µM | M14 > 100 µM | HCT-116 > 100 µM | SR > 100 µM | SF-295 > 100 µM | A498 > 100 µM | SK-OV-3 > 100 µM | NCI-H23 > 100 µM | SNB-75 26.2 µM | OVCAR-8 > 100 µM | SN12C > 100 µM | IGROV-1 > 100 µM | COLO 205 > 100 µM | UACC-257 > 100 µM | MCF7 > 100 µM | SNB-19 61.9 µM | U-251 > 100 µM | MDA-N > 100 µM | HT-29 > 100 µM | NCI/ADR-RES > 100 µM | SK-MEL-28 > 100 µM | OVCAR-4 > 100 µM | HL-60 > 100 µM | SW-620 > 100 µM | EKVX > 100 µM | NCI-H522 > 100 µM | BT-549 > 100 µM | TK-10 > 100 µM | HOP-62 > 100 µM | T47D 3.53 µM | HCC 2998 > 100 µM | KM12 > 100 µM | RXF 393 49.3 µM | OVCAR-5 > 100 µM | SF-268 > 100 µM | MOLT-4 > 100 µM | RPMI-8226 > 100 µM | A549 > 100 µM | SK-MEL-2 > 100 µM | SK-MEL-5 > 100 µM | K562 > 100 µM | LOX IMVI > 100 µM | MDA-MB-231 76.9 µM | UO-31 > 100 µM | CCRF-CEM > 100 µM
active: HOP-92 < 0.01 µM
